In paper PMC11477298, “Small Molecules Inducing Autophagic Degradation of Expanded Polyglutamine Protein through Interaction with Both Mutant ATXN3 and LC3” (International Journal of Molecular Sciences, 2024):

Legend:
Format in all cases: cell-based, human
[1] = MTT compound cytotoxicity assay; details: human, ATXN3-Q75-GFP SH-SY5Y cells, 0.1–100 μM compound, viability analyzed the next day, n = 3
Procedure: For the compound cytotoxicity assay, ATXN3-Q75-GFP SY5Y cells (2 × 10^4) were plated into 96-well dishes, grown for 20 h, and treated with 0.1–100 μM test compounds. After 1 day, 3-(4,5-dimethylthiazol-2-yl)-2,5-diphenyltetrazolium bromide (MTT, 5 mg/mL) (Sigma-Aldrich, St. Louis, MO, USA) was added to the cells and incubated for 3 h at 37 °C. Lysis buffer (10% Triton X-100, 0.1 N HCl, 18% isopropanol) was then added to dissolve the insoluble formazan crystals. The absorbance of the purple-colored solution was measured at optical density (OD) 570 nm by using a FLx800 fluorescence microplate spectrophotometer (Bio-Tek, Winooski, VT, USA). The half-maximal inhibitory concentration (IC50) was calculated through the construction of a dose–response curve.

[2] = system: ATXN3-Q75-GFP SH-SY5Y cells; assay: Confocal microscopy of LC3 puncta, ATXN3-Q75 aggregates and P62 colocalization; details: compound 10 μM, range over trehalose and the four compounds; for Colocalization coefficient of ATXN3-Q75-GFP with LC3 puncta: untreated 0.014; for Colocalization coefficient of LC3 with P62: untreated 0.21; for LC3 puncta per cell: untreated induced 2.7
Procedure: ATXN3-Q75-GFP SY5Y cells were seeded onto 12-well plates (1 × 10^5/well) containing poly-L-lysine-coated coverslip on day 1; treated with retinoic acid, test compounds, and doxycycline on day 2; and fixed, permeabilized, and blocked on day 8, as described. The primary anti-LC3 antibody (1:1000; Cell Signaling #83506, Danvers, MA, USA) or anti-P62 antibody (1:1500; Cell Signaling #5114) was used to stain cells at 4 °C overnight. After washing with PBS containing 0.1% Tween 20 (PBST), cells were incubated for 2 h at room temperature with Cy5-conjugated (1:1000, Jackson ImmunoResearch 715-175-150) or Alexa Fluor 555-conjugated (1:500; Invitrogen #A-31572) secondary antibody, and washed three times with PBST. Nuclei were detected using DAPI (0.1 μg/mL; Sigma-Aldrich). The stained cells on coverslips were mounted onto microscope slides with Vectashield antifade mounting medium (Vector Laboratories, Newark, CA, USA) and examined using a Zeiss LSM880 confocal microscope (Carl Zeiss AG, Oberkochen, Baden-Württemberg, Germany). Cell images were acquired at excitation/emission wavelengths of 649/666 nm, 482/536 nm, 555/582 nm, and 385/461 nm for stained LC3 puncta, aggregates, P62, and nuclei, respectively. For colocalization, 300 cells from three independent experiments were analyzed and quantified for the proportion of pixels that LC3 (red) colocalized with P62 (yellow) using Mander’s overlap coefficient (MOC) in ZEN software version 2.1 (Carl Zeiss AG).

[3] = system: 293T cells co-expressing ATXN3-Q75-VC and VN-LC3; assay: BiFC high-content analysis of transfected 293T cells; details: compound 10 μM; 24 h post-induction; untreated = 100%; range over the three named compounds
Excerpt: pTRE3G-BI-VN-LC3-ATXN3-Q14−75-VC was constructed by subcloning the ATXN3-Q14−75-VC KpnI-XbaI fragment and VN-LC3 BamHI fragment of the aforementioned plasmids into the corresponding restriction sites in multiple cloning site (MCS)-2 (ATXN3-Q14−75-VC fragment) or MCS-1 (VN-LC3 fragment) of the pTRE3G-BI vector (Clontech, Mountain View, CA, USA). The resulting plasmid allows the simultaneous expression of ATXN3-Q14−75-VC and VN-LC3 proteins from a bidirectional, Tet-responsive promoter that binds the Tet-On 3G trans-activator protein in the presence of doxycycline and co-transfected pCMV-Tet3G. Next, 293T cells (2 × 10^5) were plated onto 6-well plates on day 1. Upon the next day, the constructed pTRE3G-BI-VN-LC3-ATXN3-Q 14−75-VC (2 μg) together with pCMV-Tet3G (0.5 μg) were transiently co-transfected into cells using GenJet in vitro DNA transfection reagent (SignaGen Laboratories #SL100488, Rockville, MD, USA). Doxycycline (1 μg/mL) was added to cells to induce ATXN3-Q14−75-VC and VN-LC3 expression on day 3. Cell lysates were prepared at 24 h post-induction and analyzed by Western blot using ataxin-3 (1:1000; Invitrogen #PA5-26251) or LC3 (1:2000; MBL International #PM036) antibody. In addition, at 0, 6, 9, 12, and 24 h post-transfection, the pTRE3G-BI-VN-LC3-ATXN3-Q75-VC transfected cells were fixed, permeabilized, blocked, and stained with 5TF1-1C2 (1:1000; Merck #MAB1574) antibody at 4 °C overnight, followed by Cy5-donkey anti-mouse IgG secondary antibody (1:1000; Jackson ImmunoResearch #715-175-151) staining for 2 h at room temperature. Nuclei were counterstained with DAPI (0.1 μg/mL; Sigma-Aldrich). Cell images were obtained at excitation/emission wavelengths of 482/536 nm (FITC filter) for Venus, 631/692 nm (Cy5 filter) for stained expanded ATXN3-Q75 protein, and 377/447 nm (DAPI filter) for detecting nuclei (ImageXpress Micro Confocal; Molecular Devices).
On day 3, doxycycline (1 μg/mL) was added to the aforementioned transfected 293T cells along with NC009-1, -2, or -6 or LM-031 (10 μM). At 24 h post-transfection, the transfected cells were fixed, permeabilized, blocked, and stained with 5TF1-1C2 antibody, as described. After nucleus staining (DAPI, 0.1 μg/mL), the captured images were analyzed as described for overlapped ATXN3-Q75 and Venus signals and the green fluorescence of Venus-tagged LC3 puncta using the high-content imaging system, as described.

SMILES | IC50 at 1 day [1] [µM] | Colocalization coefficient of ATXN3-Q75-GFP with LC3 puncta [2] | Colocalization coefficient of LC3 with P62 [2] | LC3 puncta per cell [2] | Green fluorescence of Venus-tagged LC3 puncta [3] | Overlapping of green (Venus) and red (ATXN3-Q75) signals [3]
CC(=O)/C(=C\c1ccccc1[N+](=O)[O-])Cc1c[nH]c2ccccc12 [NC009-1] | 111 | 0.025–0.030 | 0.26–0.29 | 4.6–6.7 | 121–122% | 117–119%
O=C(c1ccccc1)c1cc2c(O)cccc2oc1=O [LM-031] | > 100 | 0.025–0.030 | 0.26–0.29 | 4.6–6.7 | 121–122% | 117–119%
CC(=O)/C(=C\c1ccccc1[N+](=O)[O-])Cc1c(C)[nH]c2ccccc12 [NC009-2] | 124 | 0.025–0.030 | 0.26–0.29 | 4.6–6.7 | 121–122% | 117–119%
